Source: ChEMBL document CHEMBL6103589, “Synthesis and evaluation of novel ebselen derivatives as urease inhibitors for combating Helicobacter pylori infections” (Eur J Med Chem, 2025)
In brackets after ≈: the same amount, converted by molar mass. Activity calls are given as the source filed them. The calls are words filed in the database; no cut-off is given here.

How the values were obtained:
Helicobacter pylori [1] = assay: (§1) Protection against Helicobacter pylori ATCC 43504 infected (MOI 300:1) in human GES1 cell injury model assessed as necrotic cells at 25 uM pre-treated for 2 hrs followed by bacterial infection measured after 6 hrs by Annexin/V-FITC staining based flow cytometry analysis (reference value: 6.05%); assay type: functional; conditions: time 8 hrs
Helicobacter pylori [2] = assay: as §1, with “100:1)” for “300:1)”, “early apoptotic” for “necrotic”, “24.66 %)” for “6.05%)”; assay type: functional; conditions: time 8 hrs
Helicobacter pylori [3] = assay: as §1, with “early apoptotic” for “necrotic”, “34.57 %)” for “6.05%)”; assay type: functional; conditions: time 8 hrs
Helicobacter pylori [4] = assay: (§2) Protection against Helicobacter pylori ATCC 43504 infected (MOI 50:1) in human GES1 cell injury model assessed as early apoptotic cells at 25 uM pre-treated for 2 hrs measured after 6 hrs by Annexin/V-FITC staining based flow cytometry analysis (reference value: 13.16 %); assay type: functional; conditions: time 8 hrs
Helicobacter pylori [5] = assay: In vivo protection against Helicobacter pylori ATCC 43504 infected in BALB/c mouse gastric mucosa model assessed as effect on infiltration at high dose administered once a day for 2 weeks by HE staining based analysis; assay type: functional, organism-based
Helicobacter pylori [6] = assay: as §1, with “25:1)” for “300:1)”, “early apoptotic” for “necrotic”, “50” for “25”, “9.89%)” for “6.05%)”; assay type: functional; conditions: time 8 hrs
Helicobacter pylori [7] = assay: Protection against Helicobacter pylori ATCC 43504 infected (MOI 100:1) in human GES1 cell injury model assessed as necrotic cells at 25 uM pre-treated for 2 hrs followed by bacterial infection measured after 6 hrs by Annexin/V-FITC staining based flow cytometry analysis (reference value: 2.82%); assay type: functional; conditions: time 8 hrs
[8] = target: Urease subunit alpha/Urease subunit beta (Helicobacter pylori (strain ATCC 700392 / 26695) (Campylobacterpylori), UniProt P69996); assay: Inhibition of Helicobacter pylori ATCC 43504 urease preincubated for 75 mins followed by urea addition and measured after 30 mins by ELISA; assay type: protein-complex assay
Sequence of Urease subunit alpha/Urease subunit beta (P69996 whole entry): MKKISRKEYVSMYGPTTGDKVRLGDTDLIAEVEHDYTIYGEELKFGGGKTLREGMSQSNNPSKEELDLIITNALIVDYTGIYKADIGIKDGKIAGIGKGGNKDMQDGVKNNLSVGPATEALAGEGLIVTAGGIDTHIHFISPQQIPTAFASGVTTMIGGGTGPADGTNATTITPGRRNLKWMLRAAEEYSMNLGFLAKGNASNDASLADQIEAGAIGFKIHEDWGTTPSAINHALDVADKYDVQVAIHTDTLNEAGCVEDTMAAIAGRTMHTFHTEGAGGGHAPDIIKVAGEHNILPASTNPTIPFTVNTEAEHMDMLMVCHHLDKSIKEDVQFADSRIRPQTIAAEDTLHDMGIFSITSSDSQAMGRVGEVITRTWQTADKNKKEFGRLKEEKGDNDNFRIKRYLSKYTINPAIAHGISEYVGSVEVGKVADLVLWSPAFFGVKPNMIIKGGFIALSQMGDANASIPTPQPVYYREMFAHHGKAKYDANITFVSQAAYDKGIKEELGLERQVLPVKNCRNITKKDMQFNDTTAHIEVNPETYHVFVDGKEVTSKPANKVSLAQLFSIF
Sequence of Urease subunit alpha/Urease subunit beta (P14916 whole entry, further chain): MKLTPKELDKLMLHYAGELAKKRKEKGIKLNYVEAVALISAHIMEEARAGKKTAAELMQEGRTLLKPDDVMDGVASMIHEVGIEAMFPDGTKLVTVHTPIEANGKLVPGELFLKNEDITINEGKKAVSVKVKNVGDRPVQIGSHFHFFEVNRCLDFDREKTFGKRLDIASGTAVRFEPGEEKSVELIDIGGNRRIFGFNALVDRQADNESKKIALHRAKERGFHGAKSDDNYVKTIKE

[9] = Acute toxicity in BALB/c mouse assessed as change in stool color at 1 g/Kg, po single dose administered for 7 days; assay type: organism-based; conditions: in vivo, 1000 mg/kg, 168 h, time 7 day
Helicobacter pylori [10] = assay: (§3) Protection against Helicobacter pylori ATCC 43504 infected (MOI 200:1) in human GES1 cell injury model assessed as necrotic cells at 25 uM pre-treated for 2 hrs followed by bacterial infection measured after 6 hrs by Annexin/V-FITC staining based flow cytometry analysis (reference value: 3.92%); assay type: functional; conditions: time 8 hrs
Helicobacter pylori [11] = assay: In vivo protection against Helicobacter pylori ATCC 43504 infected in BALB/c mouse gastric mucosa model assessed as effect on inflammatory cell infiltration at 25 mg/kg administered once a day for 2 weeks by HE staining based analysis; assay type: functional, organism-based
Helicobacter pylori [12] = assay: as §2, with “cells at 50 uM pre-treated” for “cells at 25 uM pre-treated”, “2 hrs followed by bacterial infection measured after” for “2 hrs measured after”; assay type: functional; conditions: time 8 hrs
Helicobacter pylori [13] = assay: as §1, with “400:1)” for “300:1)”, “late apoptotic” for “necrotic”, “50” for “25”, “13.62%)” for “6.05%)”; assay type: functional; conditions: time 8 hrs
GES1 = assay: Induction of DNA damage in human GES1 cells infected (25 to 400:1 MOI) with Helicobacter pylori ATCC 43504 assessed as decrease in gammaH2AX levels at 50 uM by SP8 laser confocal microscopic analysis; assay type: functional, cell-based; conditions: time 20.0 min
Helicobacter pylori [14] = assay: Protection against Helicobacter pylori ATCC 43504 infected (MOI 100:1) in human GES1 cell injury model assessed as viable cells at 50 uM pre-treated for 2 hrs followed by bacterial infection measured after 6 hrs by Annexin/V-FITC staining based flow cytometry analysis (reference value: 68.36%); assay type: functional; conditions: time 8 hrs
Helicobacter pylori [15] = assay: Protection against Helicobacter pylori ATCC 43504 infected (MOI 50:1) in human GES1 cell injury model assessed as necrotic cells at 25 uM pre-treated for 2 hrs followed by bacterial infection measured after 6 hrs by Annexin/V-FITC staining based flow cytometry analysis (reference value: 2.85%); assay type: functional; conditions: time 8 hrs
Helicobacter pylori [16] = assay: Protection against Helicobacter pylori ATCC 43504 infected (MOI 25:1) in human GES1 cell injury model assessed as necrotic cells at 50 uM pre-treated for 2 hrs measured after 6 hrs by Annexin/V-FITC staining based flow cytometry analysis (reference value: 0.66%); assay type: functional; conditions: time 8 hrs
Helicobacter pylori [17] = assay: Protection against Helicobacter pylori ATCC 43504 infected (MOI 400:1) in human GES1 cell injury model assessed as viable cells at 50 uM pre-treated for 2 hrs followed by bacterial infection measured after 6 hrs by Annexin/V-FITC staining based flow cytometry analysis (reference value: 37.61%); assay type: functional; conditions: time 8 hrs
Helicobacter pylori [18] = assay: In vivo protection against Helicobacter pylori ATCC 43504 infected in BALB/c mouse gastric mucosa model assessed as appearance of intact tissue structure at low dose administered once a day for 2 weeks by HE staining based analysis; assay type: functional, organism-based
Helicobacter pylori [19] = assay: Protection against Helicobacter pylori ATCC 43504 infected (MOI 50:1) in human GES1 cell injury model assessed as viable cells at 25 uM pre-treated for 2 hrs measured after 6 hrs by Annexin/V-FITC staining based flow cytometry analysis (reference value: 81.14%); assay type: functional; conditions: time 8 hrs
Helicobacter pylori [20] = assay: as §3, with “late apoptotic” for “necrotic”, “50” for “25”, “6.28%)” for “3.92%)”; assay type: functional; conditions: time 8 hrs
Helicobacter pylori [21] = assay: as §1, with “400:1)” for “300:1)”, “late apoptotic” for “necrotic”, “13.62%)” for “6.05%)”; assay type: functional; conditions: time 8 hrs
Helicobacter pylori [22] = assay: In vivo protection against Helicobacter pylori ATCC 43504 infected in BALB/c mouse gastric mucosa model assessed as effect on pathological lesion at low dose administered once a day for 2 weeks by HE staining based analysis; assay type: functional, organism-based
[23] = Acute toxicity in BALB/c mouse assessed as pathological abnormality in lungs at 1 g/Kg, po single dose administered for 7 days by HE staining based analysis; assay type: organism-based; conditions: in vivo, 1000 mg/kg, 168 h, time 7 day
Helicobacter pylori [24] = assay: Antibacterial activity against Helicobacter pylori ATCC 43504 incubated for 24 hrs by broth dilution method; assay type: functional; conditions: dose 1-64 […]

Structure (SMILES): O=C(Oc1n[se]c2ccccc12)c1cccc(F)c1
- Activity (Helicobacter pylori [1]): 0.31%
- Activity (Helicobacter pylori [2]): 7.64%
- Activity (Helicobacter pylori [3]): 15.81%
- Activity (Helicobacter pylori [4]): 4.49%
- Activity (Helicobacter pylori [5]): Active
- Activity (Helicobacter pylori [6]): 0.51%
- Activity (Helicobacter pylori [7]): 0.43%
- IC50 [8]: 140 nM
- Activity [9]: Non-toxic
- Activity (Helicobacter pylori [10]): 0.12%
- Activity (Helicobacter pylori [11]): Active
- Activity (Helicobacter pylori [12]): 2.91%
- Activity (Helicobacter pylori [13]): 0.72%
- Activity (GES1): Active
- Activity (Helicobacter pylori [14]): 96.82%
- Activity (Helicobacter pylori [15]): 0.14%
- Activity (Helicobacter pylori [16]): 0.43%
- Activity (Helicobacter pylori [17]): 89.4%
- Activity (Helicobacter pylori [18]): Active
- Activity (Helicobacter pylori [19]): 95.32%
- Activity (Helicobacter pylori [20]): 0.21%
- Activity (Helicobacter pylori [21]): 0.32%
- Activity (Helicobacter pylori [22]): inactive
- Activity [23]: Non-toxic
- Activity (Helicobacter pylori [24]): Dose-dependent-effect
- MIC (Helicobacter pylori [24]): 8 µg/mL (≈ 25 µM)
